Laboratory results published in publication PMC10477886, “Adamantaniline Derivatives Target ATP5B to Inhibit Translation of Hypoxia Inducible Factor‐1α” (Advanced Science, 2023).

Columns and labels:
HIF‐1α translation = test: polysome profile analysis; type: cell-based, human; conditions: HEK293T, 12 h with MG‐132, hypoxia
Method: Given that HI‐101 affected neither the transcription of HIF‐1α nor its degradation, we next tested whether HI‐101 regulated HIF‐1α translation. Polysome profile analysis is a commonly used method for studying translation process by separating polysomes and ribosomal subunits using a sucrose density gradient (SDG).^[ [53] ^] After treating with HI‐101 or DMSO for 12 h co‐incubated with MG‐132 under hypoxia condition, HEK293T cells were collected and polysome‐bound and polysome‐free mRNAs were isolated by using 10–50% sucrose gradient fractionation.
Polysome RNA preparations and analysis were carried out as previously described.^[ [60] ^] Briefly, cells were seeded in 10 cm dishes, and washed with cold PBS containing 100 µg mL^−1 cycloheximide, and then lysed in a hypotonic lysis buffer [5 mM tris‐HCl (pH 7.5), 2.5 mM MgCl2, 1.5 mM KCl, 100 µg mL^−1 cycloheximide, 2 mM DTT, 0.5% Triton X‐100, and 0.5% sodium deoxycholate]. A lysate sample was used to isolate the cytoplasmic RNA using TRIzol (Invitrogen). […] Gradients were fractionated, and the optical density at 260 nm was continuously detected by a UV detector and fraction collector (Teledyne ISCO). […] Fractions with mRNA associated with polysomes were pooled and HIF‐1α mRNA abundance was detected by RT‐PCR amplification in each fraction of the polysome gradient. […]

HIF‐1α protein level = test: western blot of HIF‐1α protein level in cells; type: cell-based, human
Method: Cells were lysed with RIPA lysis (Epizyme, PC101) containing 1% cocktail protease inhibitors (MCE), and protein concentrations were determined by BCA kits (Beyotime, P0012S). Samples were denatured using DS‐PAGE Protein Staining and Loading Buffer (5×) (Beyotime, P0015L) followed by boiling for 10 min at 98 °C then the proteins were fractionated by 10% or 12.5% SDS‐PAGE and transferred to Cellulose Nitrate Membrane Filters (WHATMAN). After blocking in 5% non‐fat milk for 2 h at room temperature, the membrane was incubated overnight with specific antibodies at 4 °C, followed by horseradish peroxidase (HRP)‐linked anti‐mouse or anti‐rabbit secondary antibody (Cell Signaling Technology). Finally, An Immobilon Western Chemiluminescent HRP Substrate Kit (Merck Millipore) was used for protein bands detection. In addition, blots were probed with anti‐β‐actin (Merck, Darmstadt, Germany) antibody as the internal control.

[1] = biological target: T1, interaction between ATP5B and HIF‐1α mRNA (Homo sapiens, UniProt P06576); test: RNA‐binding protein immunoprecipitation; type: cell-based; conditions: immunoprecipitation with anti‐ATP5B antibody
T1 construct: endogenous in cells
T1 sequence (P06576 48-529): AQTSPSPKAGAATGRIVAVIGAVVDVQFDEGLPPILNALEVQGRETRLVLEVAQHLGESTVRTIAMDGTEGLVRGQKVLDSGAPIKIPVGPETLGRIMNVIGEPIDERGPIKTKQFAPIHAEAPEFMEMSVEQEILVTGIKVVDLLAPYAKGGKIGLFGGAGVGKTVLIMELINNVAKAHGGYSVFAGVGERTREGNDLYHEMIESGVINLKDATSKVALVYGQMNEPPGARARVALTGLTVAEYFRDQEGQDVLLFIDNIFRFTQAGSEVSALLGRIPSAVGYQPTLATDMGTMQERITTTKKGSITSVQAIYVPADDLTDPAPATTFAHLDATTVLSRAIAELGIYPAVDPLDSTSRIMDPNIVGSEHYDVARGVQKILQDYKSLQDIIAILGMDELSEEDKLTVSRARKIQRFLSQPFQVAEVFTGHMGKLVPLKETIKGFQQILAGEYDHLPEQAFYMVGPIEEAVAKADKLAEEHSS
From the text: It has been reported recently that KUSC‐5037 inhibited HIF‐1α transcription by suppressing FoF1‐ATP synthase activity.^[ [35] ^] Thus, we wondered whether HI‐101 inhibited HIF‐1α translation in a similar way. Several ATP synthase inhibitors with various mechanisms of action have been reported.^[ [54] ^] Among them, Oligomycin inhibits the ATP synthase activity by binding the FO domain; Bedaquiline, an FDA‐approved drug, inhibits mitochondrial ATP production by targeting the gamma subunit of the ATP synthase;^[ [55] ^] Aurovertin B decreases ATP synthase activity by targeting the subunits of F1 domain. We first measured HIF‐1α transcriptional activity and protein level with the presence of reported ATP synthase inhibitors. […] A recent study reported that ATP5B shut down mPTP by binding circRNA SCAR in an enzymatic‐independent way,^[ [56] ^] which reminded us whether ATP5B played a similar role in blocking HIF‐1α translation. RNA‐binding protein immunoprecipitation was then performed using the Magna RIP RNA‐Binding Protein Immunoprecipitation Kit (Millipore, Burlington, MA) to detect the interaction between ATP5B and HIF‐1α mRNA.

[2] = tested on: HIF‐1α transcriptional activity; test: dual‐luciferase assay (HRE‐Firefly Luciferase / renilla) of HIF‐1α transcriptional activity in HEK293T cells; type: cell-based, human
Outline: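 Stable HEK293T line carrying HRE-firefly luciferase, renilla and HIF-1α P402A/P564A mutant, giving HIF-1α expression under normoxia. Compounds incubated 24 h at 37 °C; firefly/renilla luciferase ratio read as HIF-1α transcriptional activity.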

## O=C(Nc1ccc(C23CC4CC(CC(C4)C2)C3)cc1)c1cccc(Cl)c1 [1‐3a, N‐(4‐((3r,5r,7r)‐Adamantan‐1‐yl)Phenyl)−3‐Chlorobenzamide]
HIF‐1α translation
  HIF‐1α translation: efficiently inhibited HIF‐1α translation
HIF‐1α protein level; 10 µM with 100 µg mL^−1 CHX, hypoxia
  rate of HIF‐1α protein degradation: did not have a significant effect on the rate of HIF‐1α protein degradation
HIF‐1α protein level; ATP5A or ATP5B knocked down by shRNA, up to 30 µM
  HIF‐1α protein expression: failed to decrease HIF‐1α protein expression
HIF‐1α protein level; hit confirmation, Figure S5
  HIF‐1α protein level: significantly reduced HIF‐1α protein level
HIF‐1α protein level; hypoxia
  HIF‐1α protein level: specifically reduced the protein level of HIF‐1α in a dose‐dependent manner
[1]
  HIF‐1α mRNA binding to ATP5B: improved HIF‐1α mRNA binding to ATP5B
[2]; Homo sapiens, HEK-293T, 10 µM, incubation 24 h, HEK293T, mean ± s.d. (n = 3), read-out: Inhibition rate [%] @ 10 µM
  inhibition at 10 µM: 81.4 ± 0.9%
[2]; Homo sapiens, HEK-293T, HEK293T dual‐luciferase, mean ± s.d. (n = 3)
  IC50: 2000 ± 300 nM
[2]; hit confirmation
  HIF‐1α transcriptional activity (luciferase), in words: significantly inhibited HIF‐1α transcriptional activity
